In patent US10370378B2, “Treatment of sleep disorders” (Evotec International GmbH, priority 2007, dated 2019):

Experiments:
[1] = test system: primary insomnia in adult patients; test: Example 3: placebo-controlled crossover study in primary insomnia, adult patients younger than 65 (PSG, patient reports, DSST, safety); assay type: in vivo, human; conditions: for Number of Patients with Any Event / Number of Patients with Headache / Number of Patients with Somnolence: number (percent)
Procedure: A randomized, multicenter, double-blind, placebo-controlled crossover study was conducted to assess the efficacy of the 1.5 mg and 2.5 mg doses of the compound of formula (II) in the treatment of primary insomnia in adult patients. Specifically, one of the objectives of the study was to asses the efficacy of 1.5 mg and 2.5 mg doses on PSG and patient-reported measures of sleep. Also, the study was aimed at assessing the safety of 1.5 mg and 2.5 mg doses.
The study in this Example was performed for two consecutive nights with a 5-12 day washout between each period. The dosing was conducted 30 minutes before lights were turned out for the night via oral administration of a hard gelatine capsule containing the compound of formula (II) (free base) in powder form. PSG was taken for 8 hours from “lights out” on nights 1 and 2 of each treatment period. Centralized scoring of PSG was used. Testing for residual effects using the Digit Symbol Substitution Test (DSST) was performed at least 30 minutes after wake time (9 hours post dose).
The study was conducted using 67 subjects younger than 65 years of age (21 males, 46 females; mean age 45.1 yrs, range 23-64 yrs) with a documented diagnosis of primary insomnia (DSM-IV criteria). These subjects' typical bed time was between 9 pm and 1 am with at least 7 hours in bed. These subjects reported sleep latency of at least 45 minutes and TST of not more than 6.5 hours in a sleep diary for at least 3 of 7 nights.
Mean WASO of the patients was at least 40 minutes and mean TST was 240-420 minutes.

[2] = test system: primary insomnia, subjects at least 65 years old; test: Example 4: placebo-controlled parallel group study, 7 nights dosing, elderly subjects with primary insomnia; assay type: in vivo, human; conditions: for Number of subjects with any event (%): number (percent); for Adjusted mean LPS / Adjusted mean TST / Adjusted mean WASO: PSG, average of nights 1, 6 and 7; for LPS % change from placebo / WASO % change from placebo: decrease; for TST % change from placebo: increase
Procedure: A randomized, double-blind, placebo-controlled parallel group design was used to assess the hypnotic efficacy of 1.5 mg and 2.5 mg doses of the compound of formula (II) following 7 nights dosing using 149 subjects. The study was conducted in 20 sleep laboratories in the United States using both objective and subjective measures. PSG data was collected on nights 1, 6 and 7 and results are based on the mean data from these three nights. The compound of formula (II) was administered in free base form as a powder in a capsule.
The subjects were males and females at least 65 years old with a documented diagnosis of primary insomnia (DSM-IV criteria). These subjects' typical bed time was between 9 pm and 1 am with at least 7 hours in bed. These subjects reported five nights or more in seven days with TST of not more than 6.5 hours with at least 7 hours in bed. […] On screening using PSG for 2 nights, mean TST was 240-420 minutes. Mean latency in Multiple Sleep Latency Test (MSLT) was at least 5.5 minutes and not more than 14 minutes.
PSG was used to obtain TST (average of nights 1, 6 and 7). The daytime function (day 8) was measured using Psychomotor Vigilance Task (PVT), MSLT (MSLT Clinical Guidelines; Sleep, 1(3): 260-276 (1992)), Karolinska Sleepiness Scale (KSS); and objective measures Rey Auditory Verbal Learning Test (RAVLT) (day 8) (assessed 30±10 minutes after lights-on). Sleep architecture, subject reported sleep variables and categorical rating of sleep quality and safety endpoints including the Benzodiazepine Withdrawal Questionnaire were also determined.

[3] = 1.5 mg and 2.5 mg, across 7 nights

CN(C)Cc1nc(-c2ncn3c2CN(C)C(=O)c2c(Cl)cccc2-3)no1 [compound of formula (II), 7-chloro-3-(5-dimethylaminomethyl-[1,2,4]oxadiazol-3-yl)-5-methyl-4,5-dihydro-imidazo[1,5-a][1,4]benzodiazepine-6-one]
Number of Patients with Any Event ([1]; 1.5 mg (n = 71)): 13 (18.3%)
Number of Patients with Headache ([1]; 1.5 mg (n = 71)): 3 (4.2%)
Number of Patients with Somnolence ([1]; 1.5 mg (n = 71)): 2 (2.8%)
safety and tolerability ([1]; 1.5 mg and 2.5 mg doses): safe and well-tolerated
patient-reported residual sedation effects compared with placebo ([1]; 1.5 mg or 2.5 mg): no patient-reported residual sedation effects
Number of Patients with Any Event ([1]; 2.5 mg (n = 71)): 18 (25.4%)
Number of Patients with Headache ([1]; 2.5 mg (n = 71)): 6 (8.5%)
Number of Patients with Somnolence ([1]; 2.5 mg (n = 71)): 4 (5.6%)
total time awake during each hour after dosing ([1]; 2.5 mg, each hour except hour 7 (p 0.0577)): statistically significant reduction
REM sleep (sleep architecture) ([1]; 1.5 and 2.5 mg): only a small effect
slow wave sleep (sleep architecture) ([1]; 1.5 and 2.5 mg): no impairment
patient reported sleep quality ([1]; 1.5 and 2.5 mg doses): marked improvement
DSST scores compared with placebo ([1]; 9 hours after dose): only slightly lower
increase of mean TST compared to placebo ([2]; 1.5 mg): 30.9 min
Dizziness, number of subjects (%) ([2]; 1.5 mg (n = 53)): 3 (5.7)
Headache, number of subjects (%) ([2]; 1.5 mg (n = 53)): 5 (9.4)
Somnolence, number of subjects (%) ([2]; 1.5 mg (n = 53)): 1 (1.9)
Number of subjects with any event (%) ([2]; 1.5 mg (n = 53)): 15 (28.3)
safety and tolerability ([2]; 1.5 mg and 2.5 mg doses, elderly): safe and well-tolerated
sTST [2, 3]: significant increase
sWASO [2, 3]: significant decrease
subject-reported sleep onset latency [2, 3]: significant reduction
Adjusted mean LPS ([2]; 1.5 mg): 30.5 min
Adjusted mean TST ([2]; 1.5 mg): 369.5 min
Adjusted mean WASO ([2]; 1.5 mg): 86.2 min
LPS % change from placebo ([2]; 1.5 mg): 34%
WASO % change from placebo ([2]; 1.5 mg): 15%
total wake time hour by hour ([2]; 1.5 mg, each hour up to hour 6): significantly reduced
TST % change from placebo ([2]; 1.5 mg): 9%
WASO in the second half of the night (5-8 hours after lights out) ([2]; 2.5 mg): significant decrease
increase of mean TST compared to placebo ([2]; 2.5 mg): 56.4 min
Dizziness, number of subjects (%) ([2]; 2.5 mg (n = 52)): 5 (9.6)
Headache, number of subjects (%) ([2]; 2.5 mg (n = 52)): 3 (5.8)
Somnolence, number of subjects (%) ([2]; 2.5 mg (n = 52)): 6 (11.5)
Number of subjects with any event (%) ([2]; 2.5 mg (n = 52)): 19 (36.5)
Adjusted mean LPS ([2]; 2.5 mg): 26.5 min
Adjusted mean TST ([2]; 2.5 mg): 395 min
Adjusted mean WASO ([2]; 2.5 mg): 65.3 min
LPS % change from placebo ([2]; 2.5 mg): 43%
WASO % change from placebo ([2]; 2.5 mg): 36%
TWT hour by hour ([2]; 2.5 mg, every hour except hour 7): significantly reduced
TST % change from placebo ([2]; 2.5 mg): 17%
residual sedation, subject reported ([2]; 30 minutes post wake time (approximately 9 hours post dose)): no residual sedation
KSS (subjective) versus placebo ([2]; day 8): no significant difference
MSLT average sleep latency over all timepoints (2, 4, 6, 8 & 10 hours post wake time) ([2]; day 8, daytime function): increased
Benzodiazepine Withdrawal Questionnaire versus placebo ([2]; either dose): No significant difference
PVT or RAVLT versus placebo ([2]; either dose, day 8): no significant differences
sleep architecture (PSG) ([2]; human, in vivo): generally preserved sleep architecture
subjective sleep quality ([2]; over all 7 nights of dosing): sustained improvement
